# Results from patent publication US11376241B2, “Aryl hydrocarbon receptor (AhR) modulator compounds” (PHENEX PHARMACEUTICALS AG, priority 2017, dated 2022).
# Target: T1, AhR (Homo sapiens, UniProt P35869)
# T1 construct: The HepG2 CYP1A1-Luc cells do express basal luciferase activity that can be increased via potent AhR agonists or decreased via potent AhR antagonists; endogenous in cells; host or cells: HepG2 (DSMZ #ACC 180) stably carrying a human CYP1A1 promoter-firefly luciferase reporter
# T1 sequence (P35869 11-848): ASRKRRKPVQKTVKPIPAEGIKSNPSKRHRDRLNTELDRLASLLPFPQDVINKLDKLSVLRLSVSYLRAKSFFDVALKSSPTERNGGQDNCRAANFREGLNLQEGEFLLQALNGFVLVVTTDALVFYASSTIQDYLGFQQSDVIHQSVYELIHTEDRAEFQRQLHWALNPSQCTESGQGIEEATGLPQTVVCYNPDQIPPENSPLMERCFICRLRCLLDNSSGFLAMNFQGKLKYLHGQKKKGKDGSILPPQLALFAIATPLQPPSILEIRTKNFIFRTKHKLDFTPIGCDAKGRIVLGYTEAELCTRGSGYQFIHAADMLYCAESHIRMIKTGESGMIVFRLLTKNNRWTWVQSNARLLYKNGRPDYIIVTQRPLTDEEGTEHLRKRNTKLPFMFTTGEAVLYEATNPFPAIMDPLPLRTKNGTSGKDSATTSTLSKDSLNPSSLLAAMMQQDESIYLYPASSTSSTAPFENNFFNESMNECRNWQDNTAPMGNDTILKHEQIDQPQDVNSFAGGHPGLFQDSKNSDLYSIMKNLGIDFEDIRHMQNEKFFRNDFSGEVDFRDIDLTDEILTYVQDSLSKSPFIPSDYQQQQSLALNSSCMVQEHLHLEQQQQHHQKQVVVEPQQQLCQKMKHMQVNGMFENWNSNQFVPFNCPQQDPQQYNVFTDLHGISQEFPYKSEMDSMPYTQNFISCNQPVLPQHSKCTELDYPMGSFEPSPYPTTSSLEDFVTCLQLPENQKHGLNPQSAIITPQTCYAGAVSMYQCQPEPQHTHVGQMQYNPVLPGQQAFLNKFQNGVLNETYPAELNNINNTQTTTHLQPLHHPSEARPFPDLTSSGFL
# Experiment: AhR direct luciferase reporter assay in HepG2 cells (HepG2 CYP1A1-LUC)
# Type: cell-based
# Details: 18 hours, luciferase activity, no exogenous AhR agonist or 10 nM VAF347, read-out: AhR potency (AhR antagonistic potency, IC50)
# Source text: AhR direct luciferase reporter assay in HepG2 cells.
# A stable cell line (HepG2 CYP1A1-LUC) was used in which part of the promoter region of the human CYP1A1 gene is stably integrated into the genome of human HepG2 hepatocytes (DSZM #ACC 180) in front of a Photinus pyralis Firefly Luciferase gene. A 1210 bp fragment comprising part of the human CYP1A1 promoter was isolated via SacI and BglII restriction digestion from Lightswitch Clone S714555 (SwitchGearGenomics) and inserted between the SacI and BglII sites in pGL4.30 (Promega #E8481) in front of the Firefly Luciferase gene. The resulting vector was linearized with NotI, transfected into HepG2 cells (DSMZ #ACC 180) and stably transfected clones selected with 250 μg/ml Hygromycin B. After repetitive rounds of subcloning and testing for robustly regulated luciferase activity after AhR agonist stimulation, a stable clonal HepG2 CYP1A1-Luc cell line was selected.
# The HepG2 CYP1A1-Luc cells do express basal luciferase activity that can be increased via potent AhR agonists or decreased via potent AhR antagonists, added to the growth medium of the cells.
# In typical reporter assays performed with this cell line, cells are grown in 96-well plates and AhR modulators are titrated into the growth medium in serial dilutions in RPMI-1640 Medium (Sigma #R7509) supplemented with 8.6% fetal calf serum (Sigma #F7524) and containing either no exogenous AhR agonist or 10 nM of the potent AhR agonist VAF347 (Calbiochem #182690). Cells are further cultivated for 18 hours and luciferase activities are determined from extracts of cells in buffers containing D-Luciferine and ATP using a LUMIstar Optima microplate Luminometer from BMG Labtech.
row,SMILES,IC50
1,Cn1ccnc1C(=O)Nc1cc2[nH]c(-c3ccccc3C(F)F)cc2cn1 [4/2],< 100 nM
2,"Cn1ncnc1C(=O)Nc1cc2[nH]c(-c3ccccc3C(F)F)cc2cn1 [Example 1/6, N-(2-(2-(Difluoromethyl)phenyl)-1H-pyrrolo[3,2-c]pyridin-6-yl)-1-methyl-1H-1,2,4-triazole-5-carboxamide]",< 100 nM
3,Cn1ncnc1C(=O)Nc1cc2[nH]c(-c3ccccc3C(F)F)c(F)c2cn1 [2/3],< 100 nM
4,"O=C(Nc1cc2[nH]c(-c3ccccc3C(F)(F)F)cc2cn1)c1ccccn1 [Example 1/3, N-(2-(2-(Trifluoromethyl)phenyl)-1H-pyrrolo[3,2-c]pyridin-6-yl) picolinamide]",< 100 nM
5,Cn1ncnc1C(=O)Nc1cc2[nH]c(-c3cc(C#N)ccc3C(F)(F)F)cc2cn1 [2/6],< 100 nM
6,"CN(C(=O)c1ncnn1C)c1cc2[nH]c(-c3cc(F)ccc3C(F)F)cc2cn1 [Example 3, N-(2-(2-(Difluoromethyl)-5-fluorophenyl)-1H-pyrrolo[3,2-c]pyridin-6-yl)-N,1-dimethyl-1H-1,2,4-triazole-5-carboxamide]",100 to 1000 nM
7,"Cn1cnnc1C(=O)Nc1cc2[nH]c(-c3ccccc3C(F)F)cc2cn1 [Example 1/5, N-(2-(2-(Difluoromethyl)phenyl)-1H-pyrrolo[3,2-c]pyridin-6-yl)-4-methyl-4H-1,2,4-triazole-3-carboxamide]",> 1000 nM
8,Cn1ncnc1C(=O)Nc1cc2[nH]c(-c3cc(C(F)F)ccc3F)cc2cn1 [2/5],100 to 1000 nM
9,"Cn1ncnc1C(=O)Nc1cc2[nH]c(-c3ccccc3C(F)(F)F)cc2cn1 [Example 1/2, 1-Methyl-N-(2-(2-(trifluoromethyl)phenyl)-1H-pyrrolo[3,2-c]pyridin-6-yl)-1H-1,2,4-triazole-5-carboxamide]",< 100 nM
10,Cn1cncc1C(=O)Nc1cc2[nH]c(-c3ccccc3C(F)F)cc2cn1 [4/1],100 to 1000 nM
11,"Cn1ncnc1C(=O)Nc1cc2[nH]c(-c3cc(F)ccc3C(F)F)cc2cn1 [Example 1/8, N-(2-(2-(Difluoromethyl)-5-fluorophenyl)-1H-pyrrolo[3,2-c]pyridin-6-yl)-1-methyl-1H-1,2,4-triazole-5-carboxamide]",< 100 nM
12,"Cn1ncnc1C(=O)Nc1cc2[nH]c(-c3cc(C(F)(F)F)ccc3C(F)(F)F)cc2cn1 [Example 1/10, N-(2-(2,5-Bis(trifluoromethyl)phenyl)-1H-pyrrolo[3,2-c]pyridin-6-yl)-1-methyl-1H-1,2,4-triazole-5-carboxamide]",< 100 nM
13,Cn1ncnc1C(=O)Nc1cc2[nH]c(-c3ccccc3C(F)F)c(Cl)c2cn1 [2/4],< 100 nM
14,"Cc1scnc1C(=O)Nc1cc2[nH]c(-c3ccccc3C(F)F)cc2cn1 [Example 4, N-(2-(2-(Difluoromethyl)phenyl)-1H-pyrrolo[3,2-c]pyridin-6-yl)-5-methylthiazole-4-carboxamide]",< 100 nM
15,"CCc1ccc(C(F)(F)F)c(-c2cc3cnc(NC(=O)c4ncnn4C)cc3[nH]2)c1 [Example 1/13, N-(2-(5-Ethyl-2-(trifluoromethyl)phenyl)-1H-pyrrolo[3,2-c]pyridin-6-yl)-1-methyl-1H-1,2,4-triazole-5-carboxamide]",< 100 nM
16,"CC(C)c1ccccc1-c1cc2cnc(NC(=O)c3ncnn3C)cc2[nH]1 [Example 2, N-(2-(2-Isopropylphenyl)-1H-pyrrolo[3,2-c]pyridin-6-yl)-1-methyl-1H-1,2,4-triazole-5-carboxamide]",100 to 1000 nM
17,"Cn1ncnc1C(=O)Nc1cc2[nH]c(-c3ccoc3C(F)F)cc2cn1 [Example 1/9, N-(2-(2-(Difluoromethyl)furan-3-yl)-1H-pyrrolo[3,2-c]pyridin-6-yl)-1-methyl-1H-1,2,4-triazole-5-carboxamide]",100 to 1000 nM
18,"Cn1ncnc1C(=O)Nc1cc2[nH]c(-c3cc(C4CC4)ccc3C(F)(F)F)cc2cn1 [Example 1/11, N-(2-(5-Cyclopropyl-2-(trifluoromethyl)phenyl)-1H-pyrrolo[3,2-c]pyridin-6-yl)-1-methyl-1H-1,2,4-triazole-5-carboxamide]",< 100 nM
19,"Cn1ncnc1C(=O)Nc1cc2[nH]c(-c3cc(F)ccc3C(F)(F)F)cc2cn1 [Example 1/4, N-(2-(5-Fluoro-2-(trifluoromethyl)phenyl)-1H-pyrrolo[3,2-c]pyridin-6-yl)-1-methyl-1H-1,2,4-triazole-5-carboxamide]",< 100 nM
20,"Cn1ncnc1C(=O)Nc1cc2[nH]c(-c3cc(F)c(F)cc3C(F)F)cc2cn1 [Example 1/12, N-(2-(2-(Difluoromethyl)-4,5-difluorophenyl)-1H-pyrrolo[3,2-c]pyridin-6-yl)-1-methyl-1H-1,2,4-triazole-5-carboxamide]",100 to 1000 nM
21,Cn1ncnc1C(=O)Nc1cc2[nH]c(-c3ccccc3C(C)(C)O)cc2cn1 [2/7],> 1000 nM
22,"Cc1ccccc1-c1cc2cnc(NC(=O)c3ccnn3C)cc2[nH]1 [Example 1, 1-Methyl-N-(2-(o-tolyl)-1H-pyrrolo[3,2-c]pyridin-6-yl)-1H-pyrazole-5-carboxamide]",100 to 1000 nM
23,"Cn1nccc1C(=O)Nc1cc2[nH]c(-c3ccccc3C(F)(F)F)cc2cn1 [Example 1/1, 1-Methyl-N-(2-(2-(trifluoromethyl)phenyl)-1H-pyrrolo[3,2-c]pyridin-6-yl)-1H-pyrazole-5-carboxamide]",< 100 nM
24,"Cn1ncnc1C(=O)Nc1cc2[nH]c(-c3ccccc3C(F)F)c(C#N)c2cn1 [Example 5, N-(3-Cyano-2-(2-(difluoromethyl)phenyl)-1H-pyrrolo[3,2-c]pyridin-6-yl)-1-methyl-1H-1,2,4-triazole-5-carboxamide]",100 to 1000 nM
25,"Cn1cnnc1C(=O)Nc1cc2[nH]c(-c3cc(F)ccc3C(F)(F)F)cc2cn1 [Example 1/7, N-(2-(5-Fluoro-2-(trifluoromethyl)phenyl)-1H-pyrrolo[3,2-c]pyridin-6-yl)-4-methyl-4H-1,2,4-triazole-3-carboxamide]",< 100 nM
26,Cn1ncnc1C(=O)Nc1cc2[nH]c(-c3c(Cl)cccc3Cl)cc2cn1 [2/2],100 to 1000 nM
27,Cc1ccccc1-c1cc2cnc(NC(=O)c3ncnn3C)cc2[nH]1 [2/1],< 100 nM
28,Cc1ocnc1C(=O)Nc1cc2[nH]c(-c3ccccc3C(F)F)cc2cn1 [4/3],< 100 nM
